Measurements reported in patent US20260144862A1, “MATERIALS AND METHODS TO TREAT EPSTEIN-BARR VIRUS (EBV) AND EBV-INDUCED DISEASES” (Medizinische Universität Wien, priority 2022, published 2026).

Columns and labels:
NKG2A+ NK cells = experiment: NKG2A+ NK cell inhibition assay; type: cell-based, human; conditions: K562-HLA-E*0101/0101 or K562-HLA-E*0103/0103 target cells pulsed with 300 μM LMP-1 peptide
Method: For the NKG2A^+ NK cell inhibition experiments, MACS-enriched CD56^+ cells were quickly thawed at 37° C., washed, and pre-activated overnight in RPMI, 10% FCS, 1% L-glutamine (all: Thermo Fisher Scientific), 10 ng/ml IL-12 (PeproTec) and 100 ng/ml IL-18 (Biozym Scientific) at 37° C. CD56^+ NK cells were then harvested by centrifugation at 400×g for 5 minutes and washed once with Opti-MVEM I Reduced Serum Medium (Gibco). The NK cells were then cultured together with peptide pulsed K562-HLA-E*0101/0101 or K562-HLA-E*0103/0103 cells (E:T, 1:2) and 5 μL mouse anti-human CD107-APC-H7 (BD) for 6 h. NK cells were then harvested, fixed with the FIX & PERM Cell Fixation & Cell Permeabilization Kit (Thermo-Scientific) and analysed by flow-cytometry, as described below.

NKG2A+ CD8+ T cells = experiment: NKG2A+ CD8+ T cell inhibition assay; type: cell-based, human; conditions: K562-HLA-E*0101/0101 or K562-HLA-E*0103/0103 target cells pulsed with 300 μM peptide
Method: For the CD8^+ T cells experiments, CD8^+ MACS-enriched cells were quickly thawed at 37° C., washed once, and pre-activated overnight in RPMI, 10% FCS, 1% L-glutamine and 20 ng/ml IL-2 (PeproTec) at 37° C. CD8^+ T cells were then harvested by centrifugation (400×g, 5 min) and then washed once with Opti-MEM I Reduced Serum Medium. CD8^+ T cells were then cultured together with peptide pulsed K562-HLA-E*0101/0101 or K562-HLA-E*0103/0103 cells (E:T, 1:2), 1× monensin and 1× brefeldin A for 6 h. […] were harvested, fixed with the FIX & PERM Cell Fixation & Cell Permeabilization Kit and analysed by flow-cytometry, as described below.

EBV B95-8 isolate = experiment: Virus (EBV) dissemination assay in K562-CR2-HLA-E cells; type: cell-based, Epstein-Barr virus; conditions: for viral spread (BZLF1+ K562-CR2-HLA-E cells); effect of peptide on NKG2A+ NK or NKG2A+ CD8+ T cell mediated prevention of the viral spread: 300 μM LMP-1 peptide, 2-14 days of co-culture; for inhibition of NKG2A+ CD8+ T cells in EBV-dissemination assay (granzyme B-expressing cells) / inhibition of NKG2A+ NK cells in EBV-dissemination assay (granzyme B-expressing cells): peptide-pulsed K562-CR2-HLA-E*0103/0103 and K562-CR2-HLA-E*0101/0101 cells; for inhibition of NKG2A+ CD8+ T cells in EBV-dissemination assay (granzyme B-expressing cells): sorted NKG2A+ CD8+ T cells; for inhibition of NKG2A+ NK cells in EBV-dissemination assay (granzyme B-expressing cells): sorted NKG2A+ NK cells
Method: For the virus dissemination assays, the marmoset B-lymphoblastoid cell line B95-8 was cultured in RPM1 1640 medium supplemented with 20 mM glutamine, 50 µg/ml gentamicin, 0.2 µg/ml amphotericin B and 10% FCS (Thermo-Scientific). Cells were then cultured in the presence of […] (Biomol) for two weeks. EBV was harvested from the supernatant and enriched by ultracentrifugation (30000 U/min, 90 min, 10° C.). The virus stocks were stored at −80° C. in RPMI 1640 medium+10% FCS+10% DMSO (all: Thermo-Scientific). The multiplicity of infection (MOI) of the viral stocks was determined on K562-CR2-HLA-E*0101/0101 and K562-CR2-HLA-E*0103/0103 cells by flow-cytometry.
RMA-S/HLA-E/LFA-3 cells (kindly provided by Chiara Romagnani, DRFZ, Berlin) were maintained in RPMI-1640+20 mM glutamine+10% FCS+20 μM β-mercaptoethanol+100 U/ml penicillin-streptomycin (all Thermo Fisher)+400 μg/ml hygromycin B+1 mg/ml G418 (both InvivoGen). 2×10^6 RMA-S/LFA3/HLA-E cells were incubated for 16 h at 37° C., 5% CO2, with 300 μM of respective peptides (Peptides&Elephants) in 1 ml serum-free OptiMEM (Thermo-Fisher). Cells were afterwards inactivated using 20 μg/mL Mitomycin C (Sigma Aldrich) at 37° C. for 30 minutes. Peptide pulsed RMA-S/LFA3/HLA-E cells were co-cultured with […] CFSE (Thermo-Fisher) stained CD56^+ or CD8^+ MACS-enriched cells for 7 days in RPMI+10% FCS. Proliferating (CFSE^low) NKG2A^+CD56^+ NK cells, NKG2A^+ CD8^+ T cells or […]-specific, HLA-E-restricted NKG2A^+ or NKG2A^− T cells were then sorted by FACS as described below.
Fresh K562-CR2-HLA-E*0101/0101 and K562-CR2-HLA-E*0103/0103 cells were then inactivated using 20 μg/mL Mitomycin C at 37° C. for 30 minutes and then infected with the EBV B95-8 isolate (MOI=1) for 24 h. The infected cells were then co-cultured together with the sorted NKG2A^+ CD56^+ NK cells, NKG2A^+ CD8^+ T cells or […]-specific, HLA-E-restricted NKG2A^+ or NKG2A^− T cells (E:T, 1:2). In some experiments, 300 μM of respective peptides was also added. At indicated time points, the cells were harvested and analyzed by flow-cytometry, as described below.

HLA-E = experiment: LMP-1 dependent HLA-E up-regulation assay in GlialCAM370-389-specific B-cells; type: cell-based, human; conditions: B-cells from 24 healthy blood donors transfected with LMP-1 peptide, 16 h
Method: (§1) For the HLA-E stabilization experiments, 5×10^6 viable CFSE stained PBMCs were cultured in RPMI-1640+10% FCS in the presence of 10 μg GlialCAM370-389 ([…]), 10 μg of random 20 amino acid peptides (negative control, GenScript) or without peptides (non-peptide control) and 10 ng/mL IL-2 (Peprotech) at 37° C. Every three days, fresh 10 μg GlialCAM370-389 and 10 ng/mL IL-2 were added. After 7 days of co-culture, GlialCAM370-389-specific B-cells were sorted. 1×10^5 GlialCAM370-389-specific B-cells were then individually transfected with the indicated concentrations of the LMP-1 peptides (Peptides&Elephants) using the Pierce Protein Transfection Reagent according to the manufacturer's instructions (Thermo Fisher). After 16 h, the cells were either fixed and analyzed for HLA-E expression by flow cytometry, as described below, or washed once with Opti-MEM I Reduced Serum Medium (Gibco) and subsequently used in NKG2A^+ NK cell inhibition experiments. For the NKG2A^+ NK cell inhibition experiments, sorted NKG2A^+NKG2C^−NKG2D^− NK cells from 24 healthy blood donors were cultured together with peptide-pulsed GlialCAM370-389 B-cells (E:T, 1:1) for 6 h at 37° C. After co-cultivation, the supernatant was removed, cleared by centrifugation (1000×g, 5 min), and analyzed using IFNγ ELISA according to the manufacturer's recommendations (Thermo Fisher).

[1] = test system: NKG2A+ NKG2C−NKG2D− NK cells; experiment: NKG2A+ NK cell inhibition by LMP-1 peptide-transfected GlialCAM370-389-specific B-cells (IFNγ ELISA); type: cell-based, human; conditions: LMP-1 peptide-pulsed GlialCAM370-389-specific B-cells, E:T 1:1, 6 h
Method: as §1

[2] = test system: NKG2A+ NKG2D−NKG2C− NK cells; experiment: NK cell inhibition assay with GlialCAM370-389-specific cells, with or without NKG2A-blocking antibody (IFNγ ELISA); type: cell-based, human; conditions: 10 μg/mL antibody, 12 h co-culture
Method: For the NK cell inhibition assays, GlialCAM370-389-specific (CFSE^low) CD4^+ T-cells, CD8^+ T-cells, and CD138^+ plasma cells were sorted and co-cultured together in an E:T ratio of 1:1 with sorted CD56^+NKG2A^+ NKG2D^−NKG2C^− NK cells from 24 healthy blood donors in OptiMem (Thermo Fisher) for 12 h at 37° C. For some experiments α-NKG2A blocking monoclonal antibodies (Monalizumab, 10 μg/mL, Innate Pharma) was added to the co-culture. The supernatant was removed, cleared by centrifugation (1000×g, 5 min), and then used for IFNγ (both Thermo Fisher) according to the manufacturer's instructions.

Molecule	inhibition of NKG2A+ NK cells (NKG2A+ NK cells)	inhibition of NKG2A+ CD8+ T cells (IFNγ-expressing NKG2A+ CD8+ T cells) (NKG2A+ CD8+ T cells)	viral spread (BZLF1+ K562-CR2-HLA-E cells); effect of peptide on NKG2A+ NK or NKG2A+ CD8+ T cell mediated prevention of the viral spread (EBV B95-8 isolate)	inhibition of NKG2A+ CD8+ T cells in EBV-dissemination assay (granzyme B-expressing cells) (EBV B95-8 isolate)	inhibition of NKG2A+ NK cells in EBV-dissemination assay (granzyme B-expressing cells) (EBV B95-8 isolate)	upregulation of HLA-E on the surface of GlialCAM370-389-specific B-cells (HLA-E)	inhibition of NKG2A+ cells (IFNγ concentration in the supernatant) [1]	inhibition of NKG2A+ cells by GlialCAM370-389-specific cells from patients with MS when NKG2A-blocking antibody is added [2]
GGDPHLPTL [EBV LMP-1 peptide variant]	potent inhibition	potent inhibition	increased viral spread	caused the inhibition	caused the inhibition	stable upregulation of HLA-E	potently inhibited	
GGDPPLPTL [EBV LMP-1 peptide variant]	potent inhibition	potent inhibition	increased viral spread	caused the inhibition	caused the inhibition	stable upregulation of HLA-E	potently inhibited	
Monalizumab: α-NKG2A blocking monoclonal antibodies (Innate Pharma) (antibody, chains of the INN, looked up, V domains shown) VH: QVQLVQSGAEVKKPGASVKVSCKASGYTFTSYWMNWVRQAPGQGLEWMGRIDPYDSETHYAQKLQGRVTMTTDTSTSTAYMELRSLRSDDTAVYYCARGGYDFDVGTLYWFFDVWGQGTTVTVSS VL: DIQMTQSPSSLSASVGDRVTITCRASENIYSYLAWYQQKPGKAPKLLIYNAKTLAEGVPSRFSGSGSGTDFTLTISSLQPEDFATYYCQHHYGTPRTFGGGTKVEIK								reversible
